Measured values taken from paper PMC6273369, “Synthesis, Biological Evaluation and Molecular Modelling of 2′-Hydroxychalcones as Acetylcholinesterase Inhibitors” (Molecules, 2016).
Where two headings read alike, the source gives them in different places.

Columns and labels:
human AChE [1] = target: T1, human AChE (Homo sapiens, UniProt P22303); assay: biochemical; conditions: for inhibition at 10 µM: read-out: % Inhibition at 10 µM; for IC50: mean ± SEM
T1 construct: purchased Sigma-Aldrich
Procedure: AChE and BChE inhibition studies were performed in 96 well plates by the method of Ellman, et al.. […] The mixture was preincubated for 20 min at 37 °C before addition of 50 μL (0.120 mM) of the substrate, acetylthiocholine (ATC) iodide or butyrylthiocholine (BTC) iodide (depending on the enzyme). […] Each assay was performed in triplicate. […] The percentage of inhibition was calculated using the expression: (E–S)/E × 100 where E is the activity of the enzyme without test compound and S is the activity of the enzyme with test compound.
(§1) IC50 values were obtained from concentration-inhibition experiments by nonlinear regression analysis using PRISM® v5.0 (GraphPad Inc., San Diego, CA, USA).

equine BChE = target: T2, equine BChE (Equus caballus, UniProt P81908); assay: Equine BChE inhibition, Ellman's method; type: biochemical; conditions: for IC50: equine BChE, mean ± SEM; for Selectivity for AChE: IC50 (BChE)/IC50 (AChE)
T2 construct: purchased Sigma-Aldrich
T2 sequence (P81908 whole entry): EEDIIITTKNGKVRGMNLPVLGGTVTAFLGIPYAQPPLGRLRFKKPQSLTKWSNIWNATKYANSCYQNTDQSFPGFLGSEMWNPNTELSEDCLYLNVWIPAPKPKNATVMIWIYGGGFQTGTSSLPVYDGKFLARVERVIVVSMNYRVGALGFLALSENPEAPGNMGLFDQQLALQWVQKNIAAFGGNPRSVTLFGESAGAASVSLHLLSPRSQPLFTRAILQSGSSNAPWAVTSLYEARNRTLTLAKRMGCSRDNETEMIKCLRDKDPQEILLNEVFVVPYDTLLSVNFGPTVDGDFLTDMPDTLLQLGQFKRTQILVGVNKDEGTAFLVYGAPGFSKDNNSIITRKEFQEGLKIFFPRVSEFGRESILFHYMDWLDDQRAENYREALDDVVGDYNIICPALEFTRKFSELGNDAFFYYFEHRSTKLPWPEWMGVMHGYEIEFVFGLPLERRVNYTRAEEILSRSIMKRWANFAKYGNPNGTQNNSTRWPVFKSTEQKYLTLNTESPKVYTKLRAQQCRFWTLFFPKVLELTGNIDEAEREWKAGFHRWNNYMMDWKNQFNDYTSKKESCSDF
Procedure: The IC50 values of the four compounds that gave the greatest inhibition of AChE were also determined for equine BChE, which is readily available and is considered a good model for human BChE [23], as the equine form has 90% sequence identity compared to the human form. […].
AChE and BChE inhibition studies were performed in 96 well plates by the method of Ellman, et al.. 110 μL of sodium phosphate buffer (pH 8.0) was added to each well followed by 20 μL of test compound, 50 μL of 5,5′-dithiobis-(2-nitrobenzoic acid) (DTNB) (0.126 mM) and 20 μL of AChE or BChE (0.15 units/mL). The mixture was preincubated for 20 min at 37 °C before addition of 50 μL (0.120 mM) of the substrate, acetylthiocholine (ATC) iodide or butyrylthiocholine (BTC) iodide (depending on the enzyme). The hydrolysis of ATC or BTC was monitored using an Infinite® M200 PRO multimode reader (Tecan Group Ltd., Männedorf, Switzerland) by measuring the absorbance due to yellow 5-thio-2-nitrobenzoate anion at 412 nm every 30 s for 25 min. Each assay was performed in triplicate. […] The percentage of inhibition was calculated using the expression: (E–S)/E × 100 where E is the activity of the enzyme without test compound and S is the activity of the enzyme with test compound.
as §1

human AChE [2] = target: T1, human AChE; assay: Kinetic characterisation of AChE inhibition (Lineweaver-Burk, nonlinear regression mixed-model); type: biochemical; conditions: substrate acetylthiocholine 0.1-1.0 mM, read-out: Apparent Ki, human AChE
Procedure: […]. The mode of inhibition was investigated using Lineweaver–Burk plots of 1/initial reaction rate (1/V) against 1/substrate concentration (1/[S]). Apparent inhibition constant (Ki and Ki′) values were determined using the nonlinear regression mixed-model inhibition method in PRISM® v5.0 (GraphPad Inc.).

[3] = human recombinant AChE, 10 µM, mean of triplicate, na = no activity observed at 10 µM

T1 sequence (P22303 32-614): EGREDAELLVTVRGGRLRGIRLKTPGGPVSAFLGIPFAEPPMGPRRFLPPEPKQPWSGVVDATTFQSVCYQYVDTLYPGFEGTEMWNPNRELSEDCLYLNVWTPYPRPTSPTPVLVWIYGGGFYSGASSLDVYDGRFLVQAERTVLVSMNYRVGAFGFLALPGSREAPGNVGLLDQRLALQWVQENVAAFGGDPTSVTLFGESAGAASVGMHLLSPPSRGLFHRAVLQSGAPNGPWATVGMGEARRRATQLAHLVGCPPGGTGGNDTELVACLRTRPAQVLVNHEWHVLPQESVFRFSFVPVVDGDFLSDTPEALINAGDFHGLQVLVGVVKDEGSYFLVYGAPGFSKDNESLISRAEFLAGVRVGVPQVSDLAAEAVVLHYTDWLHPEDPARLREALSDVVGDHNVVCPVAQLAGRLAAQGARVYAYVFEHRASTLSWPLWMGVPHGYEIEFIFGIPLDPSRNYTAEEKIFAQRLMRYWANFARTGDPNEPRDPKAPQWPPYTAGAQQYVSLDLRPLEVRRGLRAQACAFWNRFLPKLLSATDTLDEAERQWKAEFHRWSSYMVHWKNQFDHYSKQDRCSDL

Structure (SMILES): COc1cc(O)c(C(=O)/C=C/c2ccc(C)cc2)c(OC)c1 [Compound 9, 2′-Hydroxy-4′,6′-dimethoxy-4-methylchalcone]
- inhibition at 10 µM (human AChE [1]; [3]): 23%
- IC50 (human AChE [1]; human recombinant AChE): 354 ± 33 µM

Structure (SMILES): COc1cc(O)c(C(=O)/C=C/c2ccccc2Br)c(OC)c1 [Compound 13, 2-Bromo-2′-hydroxy-4′,6′-dimethoxychalcone]
- IC50 (equine BChE): 71 ± 14 µM
- Ki (human AChE [2]): 113 µM
- inhibition at 10 µM (human AChE [1]; [3]): 23%
- IC50 (human AChE [1]; human recombinant AChE): 85 ± 16 µM

Structure (SMILES): COc1ccc(/C=C/C(=O)c2c(O)cc(OC)cc2OC)cc1 [Compound 12, 2′-Hydroxy-4,4′,6′-trimethoxychalcone]
- inhibition at 10 µM (human AChE [1]; [3]): 7%

Structure (SMILES): COc1ccc(/C=C/C(=O)c2ccccc2O)cc1 [Compound 6, 2′-Hydroxy-4-methoxychalcone]
- inhibition at 10 µM (human AChE [1]): 6%

Structure (SMILES): COc1cc(O)c(C(=O)/C=C/c2ccc(N(C)C)cc2)c(OC)c1 [Compound 11, 2′-Hydroxy-4′,6′-dimethoxy-4-(dimethylamino)chalcone]
- inhibition at 10 µM (human AChE [1]; [3]): 5%

Structure (SMILES): CN(C)c1ccc(/C=C/C(=O)c2ccccc2O)cc1 [Compound 5, 2′-Hydroxy-4-(dimethylamino)chalcone]
- inhibition at 10 µM (human AChE [1]; [3]): 28%
- IC50 (human AChE [1]; human recombinant AChE): 266 ± 48 µM

Structure (SMILES): COc1cc(O)c(C(=O)/C=C/c2ccc(Br)cc2)c(OC)c1 [Compound 10, 4-Bromo-2′-hydroxy-4′,6′-dimethoxychalcone]
- Selectivity for AChE (equine BChE): 1.4
- IC50 (equine BChE): 59 ± 12 µM
- Ki (human AChE [2]): 31 µM
- inhibition at 10 µM (human AChE [1]; [3]): 30%
- IC50 (human AChE [1]; human recombinant AChE): 41 ± 13 µM

Structure (SMILES): COc1cc(O)c(C(=O)/C=C/c2cc(Cl)cc(Cl)c2O)c(OC)c1 [Compound 14, 3,5-Dichloro-2,2′-dihydroxy-4′,6′-dimethoxychalcone]
- Selectivity for AChE (equine BChE): 1.1
- IC50 (equine BChE): 81 ± 18 µM
- Ki (human AChE [2]): 56 µM
- inhibition at 10 µM (human AChE [1]; [3]): 51%
- IC50 (human AChE [1]; human recombinant AChE): 73 ± 22 µM

Structure (SMILES): O=C(/C=C/c1ccccc1Br)c1ccccc1O [Compound 7, 2-Bromo-2′-hydroxychalcone]
- Selectivity for AChE (equine BChE): 2.0
- IC50 (equine BChE): 108 ± 18 µM
- Ki (human AChE [2]): 40 µM
- inhibition at 10 µM (human AChE [1]; [3]): 38%
- IC50 (human AChE [1]; human recombinant AChE): 55 ± 12 µM

Structure (SMILES): O=C(/C=C/c1ccccc1)c1ccccc1O [Compound 1, 2′-Hydroxychalcone]
- inhibition at 10 µM (human AChE [1]): 11%
